Here are results for 34 compounds from patent US6147100A, “Pyrrolidine derivatives having phospholipase A2 inhibitory activity” (Shionogi & Co., Ltd., priority 1997, dated 2000).

The test system of assay [1] is production of prostaglandin E2 by human fibroblasts. The experiment in a line: Inhibition of Production of Prostaglandin E2 in Human Fibroblasts (IL-1 stimulation). The assay is classed as cell-based. The following applies: Fibroblast; human fibroblasts under stimulation with IL-1. As for the experimental part:
Test Example 2 Inhibition of Production of Prostaglandin E2 in Human Fibroblasts.
In order to examine the availability of the composition for inhibiting cytosolic phospholipase A2 (cPLA2) on the cells, the compounds of the present invention were tested for the effect on the production of prostaglandin E2 by human fibroblasts under the stimulation with IL-1 according to the method of J. M. Dayer et al (CACHECTIN/TUMOR NECROSIS FACTOR STIMULATES COLLAGENASE AND PROSTAGLANDIN E2 PRODUCTION BY HUMAN SYNOVIAL CELLS AND DERMAL FIBROBLASTS; J. M. Dayer, B, Beutler and A, Cerami, J. EXP. Med., 1985, 162, 2163-2168.).

Assay [2] concerns the target T1, cPLA2 (Homo sapiens, UniProt P47712).
T1 sequence (P47712 1-749): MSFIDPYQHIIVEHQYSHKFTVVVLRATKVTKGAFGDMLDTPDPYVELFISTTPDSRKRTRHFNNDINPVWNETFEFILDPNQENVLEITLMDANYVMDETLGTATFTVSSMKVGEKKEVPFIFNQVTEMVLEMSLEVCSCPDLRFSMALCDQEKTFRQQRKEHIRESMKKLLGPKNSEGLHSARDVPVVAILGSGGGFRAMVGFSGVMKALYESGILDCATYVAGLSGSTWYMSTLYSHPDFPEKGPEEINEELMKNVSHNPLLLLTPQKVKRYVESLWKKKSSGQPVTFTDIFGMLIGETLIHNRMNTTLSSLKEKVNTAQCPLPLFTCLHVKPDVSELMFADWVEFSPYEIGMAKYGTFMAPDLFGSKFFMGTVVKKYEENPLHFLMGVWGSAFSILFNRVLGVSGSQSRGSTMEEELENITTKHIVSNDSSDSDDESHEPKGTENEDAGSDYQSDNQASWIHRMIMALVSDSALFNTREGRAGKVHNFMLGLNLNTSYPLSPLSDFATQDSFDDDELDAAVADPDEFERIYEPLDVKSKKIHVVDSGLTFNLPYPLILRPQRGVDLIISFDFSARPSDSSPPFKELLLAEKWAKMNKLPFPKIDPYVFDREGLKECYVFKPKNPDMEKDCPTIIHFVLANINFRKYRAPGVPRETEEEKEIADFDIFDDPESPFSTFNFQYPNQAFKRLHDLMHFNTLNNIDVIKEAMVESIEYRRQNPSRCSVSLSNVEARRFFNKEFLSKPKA
Description: cPLA2 Inhibitory Activity. The assay is classed as biochemical. The settings on record: 1-palmitoyl-2-[14C]-arachidonoyl-sn-glycero-3-phosphocholine 2.5 μM, sn-1,2-dioleoylglycerol 1.25 μM; pH 7.5, 15 min at 37° C. As for the experimental part:
Test Example 1 cPLA2 Inhibitory Activity The compounds of the present invention were tested for the cPLA2 inhibitory activity according to the method disclosed in […]. Roberts, […], and J. E. Putnam, J. Biol. Chem., 1991, 266, 5268-5272 as outlined below. […] The reaction mixture includes 50 mM HEPES buffer (pH 7.5), 1 mM calcium chloride, 150 mM sodium chloride, 0.1 mg/ml bovine serum albumin, and 1.7 mM dithiothreitol. To the reaction mixture was added the compound of the present invention and the substrate solution. The reaction was allowed to start by adding an enzyme and continued for 15 min at 37° C. The fatty acids released by the reaction were extracted by the method described in V. P. Dole, and H. Meinertz, J. Biol. Chem., 1960, 235, 2595-2599 and its radiation activity was measured on a liquid scintillation counter. Control was obtained by conducting the experiment in the same manner except that a compound of the present invention was not added.

In the case of `O=C1NC(=O)/C(=C/c2ccc(C(=O)NC[C@@H]3C[C@@H](OCc4ccccc4-c4ccccc4)CN3C(=O)c3ccccc3C(=O)c3ccccc3)cc2)S1` [Compound A-1], the IC50 in assay [1] and in assay [2] was 170 nM in each case. Consider `O=C1NC(=O)/C(=C/c2ccc(C(=O)NC[C@@H]3C[C@@H](OCc4ccccc4)CN3C(=O)c3ccccc3C(=O)c3ccccc3)cc2)S1` [Compound A-2], for which the 50% inhibitory concentration (IC50) in assay [1] turned out to be 730 nM; in assay [2], 1200 nM. In the same order, the values of `O=C1NC(=O)/C(=C/c2ccc(C(=O)NC[C@@H]3C[C@@H](OCc4ccc(F)cc4F)CN3C(=O)c3ccccc3C(=O)c3ccccc3)cc2)S1` [Compound A-3] are 900 nM and 1400 nM. Regarding `O=C1NC(=O)/C(=C/c2ccc(C(=O)NC[C@@H]3C[C@@H](OCc4ccc(-c5ccccc5)cc4)CN3C(=O)c3ccccc3C(=O)c3ccccc3)cc2)S1` [Compound A-4], the IC50 is 210 nM in assay [1] and 300 nM in assay [2]. As to `Cc1ccccc1CO[C@@H]1C[C@@H](CNC(=O)c2ccc(/C=C3\SC(=O)NC3=O)cc2)N(C(=O)c2ccccc2C(=O)c2ccc(F)cc2)C1` [Compound A-5], the IC50 turned out to be 260 nM in assay [1] and 580 nM in assay [2]. Consider `O=C1NC(=O)/C(=C/c2ccc(C(=O)NC[C@@H]3C[C@@H](OCc4ccccc4-c4ccccc4)CN3C(=O)CCC(=O)c3ccc(F)cc3)cc2)S1` [Compound A-6], for which the results for the IC50 in assay [1] and in assay [2] were 8900 nM and 4800 nM, respectively.

`O=C1NC(=O)/C(=C/c2ccc(C(=O)NC[C@@H]3C[C@@H](OCc4ccccc4-c4ccccc4)CN3C(=O)C3CCCCC3C(=O)c3ccccc3)cc2)S1` (some centres unmarked) [Compound A-10]: the IC50 stood at 470 nM in assay [1] and 3200 nM in assay [2]. In the same order, the values of `O=C1NC(=O)/C(=C/c2ccc(C(=O)NC[C@@H]3C[C@@H](OCc4ccccc4-c4ccccc4)CN3C(=O)c3ncccc3C(=O)c3ccccc3)cc2)S1` [Compound A-11] are 230 nM and 860 nM.

Take `O=C1NC(=O)/C(=C/c2ccc(C(=O)NC[C@@H]3C[C@@H](OCc4ccccc4-c4ccccc4)CN3C(=O)c3sccc3C(=O)c3ccccc3)cc2)S1` [Compound A-12]: the IC50 in assay [1] came to 100 nM; in assay [2], 3100 nM. As for `O=C1NC(=O)/C(=C/c2ccc(C(=O)NC[C@@H]3C[C@@H](OCc4ccccc4-c4ccccc4)CN3C(=O)c3ccccc3C(=O)C3CCCCC3)cc2)S1` [Compound A-14], the IC50 in assay [1] amounted to 330 nM; in assay [2], 370 nM.

Consider `O=C1NC(=O)/C(=C/c2ccc(C(=O)NC[C@@H]3C[C@@H](OCc4ccccc4-c4ccccc4)CN3C(=O)c3ccccc3C(=O)c3ccc(F)cc3)cc2)S1` [Compound A-16], for which the values for the IC50 in assay [1] and in assay [2] were 260 nM and 79 nM, respectively.

With `O=C1NC(=O)/C(=C/c2ccc(C(=O)NC[C@@H]3C[C@@H](OCc4ccccc4-c4ccccc4)CN3C(=O)c3ccccc3C(=O)c3ccoc3)cc2)S1` [Compound A-17], the IC50 in assay [1] worked out at 700 nM; in assay [2] it was 1600 nM. Turning to `O=C1NC(=O)/C(=C/c2ccc(C(=O)NC[C@@H]3C[C@@H](OCc4ccccc4-c4ccccc4)CN3C(=O)c3ccccc3C(=O)c3ccsc3)cc2)S1` [Compound A-18], the IC50 was found to be 380 nM in assay [1] and 1200 nM in assay [2].

Take `O=C1NC(=S)S/C1=C\c1ccc(S(=O)(=O)NC[C@@H]2C[C@@H](OCc3ccccc3-c3ccccc3)CN2C(=O)c2ccccc2C(=O)c2ccc(F)cc2)s1` [Compound A-61]: the midpoint of inhibition in assay [1], the IC50, lay at 970 nM. Turning to `O=C1NC(=S)S/C1=C\c1ccc(S(=O)(=O)NC[C@@H]2C[C@@H](OCc3ccccc3-c3ccccc3)CN2C(=O)c2ccccc2C(=O)c2ccc(F)cc2)cc1` [Compound A-63], 900 nM corresponded to half-maximal inhibition in assay [1] (IC50). In turn, `CC(C)c1cccc(Br)c1O[C@@H]1C[C@@H](CNC(=O)c2ccc(/C=C3\SC(=O)NC3=O)cc2)N(C(=O)c2ccccc2C(=O)c2ccc(F)cc2)C1` [Compound A-100] came in with an IC50 in assay [1] of 320 nM. Compound `O=C1NC(=O)/C(=C/c2ccc(CN(C[C@@H]3C[C@@H](OCc4ccccc4-c4ccccc4)CN3C(=O)c3ccccc3C(=O)c3ccc(F)cc3)C(=O)c3ccccc3)cc2)S1` [Compound G-9] displayed an IC50 in assay [2] of 1300 nM. As for `CN(C(=O)[C@@H]1C[C@@H](OCc2ccccc2-c2ccccc2)CN1C(=O)c1ccccc1C(=O)c1ccc(F)cc1)c1ccc(/C=C2\SC(=O)NC2=O)cc1` [Compound G-10], the midpoint of inhibition in assay [2], the IC50, lay at 2400 nM. Still for that read-out and setting: the figure for `CN(C(=O)[C@@H]1C[C@@H](OCc2ccccc2-c2ccccc2)CN1C(=O)c1ccccc1C(=O)c1ccc(F)cc1)c1ccc(/C=C2\SC(=S)NC2=O)cc1` [Compound G-11] is 4000 nM; for `CN(C(=O)[C@@H]1C[C@@H](OCc2ccccc2-c2ccccc2)CN1C(=O)c1ccccc1C(=O)c1ccc(F)cc1F)c1ccc(/C=C2\SC(=S)NC2=O)cc1` [Compound G-12] it is 2800 nM. `CN(C(=O)C[C@@H]1C[C@@H](OCc2ccccc2-c2ccccc2)CN1C(=O)c1ccccc1C(=O)c1ccc(F)cc1)c1ccc(/C=C2\SC(=O)NC2=O)cc1` [Compound G-13]: the IC50 in assay [2] came out at 5600 nM. `O=C1NC(=S)SC1=C[C@@H]1C[C@@H](OCc2ccccc2-c2ccccc2)CN1C(=O)c1ccccc1C(=O)c1ccc(F)cc1` [Compound H-1] had an IC50 in assay [2] of 10000 nM. On the same count and under the same terms, the figure for `O=C1NC(=O)/C(=C/C2CCN(C(=O)[C@@H]3C[C@@H](SCc4ccccc4-c4ccccc4)CN3C(=O)c3ccccc3C(=O)c3ccc(F)cc3)CC2)S1` [Compound J-5] is 8600 nM. In assay [2], `O=C1NC(=S)S/C1=C\C1CCN(C(=O)[C@@H]2C[C@@H](SCc3ccccc3-c3ccccc3)CN2C(=O)c2ccccc2C(=O)c2ccc(F)cc2)CC1` [Compound J-6] registered an IC50 of 13000 nM. `CN(Cc1ccccc1)[C@@H]1C[C@@H](CNC(=O)c2ccc(/C=C3\SC(=O)NC3=O)cc2)N(C(=O)c2ccccc2C(=O)c2ccc(F)cc2)C1` [Compound M-1] showed an IC50 in assay [2] of 1500 nM. Turning to `CN(Cc1ccccc1)[C@@H]1C[C@@H](CNC(=O)c2ccc(/C=C3\SC(=S)NC3=O)cc2)N(C(=O)c2ccccc2C(=O)c2ccc(F)cc2)C1` [Compound M-2], the concentration for half-maximal inhibition (IC50) in assay [2] came out at 1400 nM. In assay [2], `CC(C)N(Cc1ccccc1)[C@@H]1C[C@@H](CNC(=O)c2ccc(/C=C3\SC(=S)NC3=O)cc2)N(C(=O)c2ccccc2C(=O)c2ccc(F)cc2)C1` [Compound M-4] had an IC50 of 140 nM.

In turn, `CC(C)CN(C(c1ccccc1)c1ccccc1)[C@@H]1C[C@@H](CNC(=O)c2ccc(/C=C3\SC(=O)NC3=O)cc2)N(C(=O)c2ccccc2C(=O)c2ccc(F)cc2)C1` [Compound M-13] gave an IC50 in assay [2] of 13 nM. Still for that read-out and setting: the figure for `CC(C)CN(CC(C)C)[C@@H]1C[C@@H](CNC(=O)c2ccc(/C=C3\SC(=O)NC3=O)cc2)N(C(=O)c2ccccc2C(=O)c2ccc(F)cc2)C1` [Compound M-15] is 150 nM; for `O=C1NC(=O)/C(=C/c2ccc(C(=O)NC[C@@H]3C[C@@H](NC(=O)c4ccccc4-c4ccccc4)CN3C(=O)c3ccccc3C(=O)c3ccc(F)cc3)cc2)S1` [Compound M-16] it is 2000 nM. For the compound `CC(C)CN(Cc1ccccc1-c1ccccc1)[C@@H]1C[C@@H](CNC(=O)/C=C/c2ccc(/C=C3\SC(=O)NC3=O)cc2)N(C(=O)c2ccccc2C(=O)c2ccc(F)cc2)C1` [Compound M-19], the IC50 in assay [2] is 3.1 nM.

For the compound `CC(C)CN(C(c1ccccc1)c1ccccc1)[C@@H]1C[C@@H](CNC(=O)/C=C/c2ccc(/C=C3\SC(=O)NC3=O)cc2)N(C(=O)c2ccccc2C(=O)c2ccc(F)cc2)C1` [Compound M-20], half-maximal inhibition in assay [2] (IC50) required 6.4 nM. `CCN(Cc1ccccc1-c1ccccc1)[C@@H]1C[C@@H](C(=O)Nc2ccc(/C=C3\SC(=O)NC3=O)cc2)N(C(=O)c2ccccc2C(=O)c2ccc(F)cc2)C1` [Compound N-4] had an IC50 in assay [2] of 69 nM.

As to `CCN(Cc1ccccc1-c1ccccc1)[C@@H]1C[C@@H](C(=O)Nc2ccc(/C=C3\SC(=S)NC3=O)cc2)N(C(=O)c2ccccc2C(=O)c2ccc(F)cc2)C1` [Compound N-5], in assay [2], half-maximal inhibition (IC50) required 240 nM.

The term IC50 denotes the concentration that inhibits the measured activity by half. A higher IC50 goes with lower potency.
